In publication PMC12000391, “Selective molecular inhibition of the HDAC6 ZnF-UBP binding domain impairs multiple myeloma cell function” (Cell Death Discovery, 2025):
Ends that are not written are not given here.

T1: HDAC6 ZnF-UBP binding domain (ZnF-UBP^WT peptide, HDAC6^1109-1215) (Homo sapiens, UniProt Q9UBN7)
T1 construct: methods b47 print 1190-1215, apparently a misprint), expressed in E. coli BL21 Star (DE3), HisTrap purified
T1 sequence (Q9UBN7 1109-1215): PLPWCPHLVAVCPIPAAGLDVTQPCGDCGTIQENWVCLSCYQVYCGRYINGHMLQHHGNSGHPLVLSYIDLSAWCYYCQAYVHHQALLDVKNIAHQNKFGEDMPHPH

T2: ubiquitin C-terminal pentapeptide RLRGG (Homo sapiens, also: FITC label, site not given here)
T2 chain: RLRGG

B1: HDAC6 ZnF-UBP 1109-1215 (protein)
chain: T1 sequence (Q9UBN7 1109-1215)

target: T1, HDAC6 ZnF-UBP binding domain (ZnF-UBP^WT peptide, HDAC6^1109-1215); test: fluorescence polarization displacement of FITC-RLRGG
Text: fluorescence polarization displacement of FITC-RLRGG on HDAC6 ZnF-UBP binding domain (ZnF-UBP^WT peptide, HDAC6^1109-1215)

**Q.** With `Cc1ccc2nc(CCC(=O)O)n(C)c(=O)c2c1` [1d, Quinazolinone 1 d] as the molecule, how does the IC50 read?
**A.** The IC50 was 13.6 ± 1 µM.

**Q.** For `Cn1c(CCC(=O)O)nc2ccccc2c1=O` [1a, quinazolinone 1a], which IC50 is on record?
**A.** The IC50 was 2.7 ± 0.3 µM.

**Q.** With `COc1ccc2nc(CCC(=O)O)n(C)c(=O)c2c1` [1c, Quinazolinone 1c] as the molecule, how does the IC50 read?
**A.** The IC50 was 2.1 ± 0.5 µM.

**Q.** `Cn1c(CCC(=O)O)nc2ccc(Cl)cc2c1=O` [1b, Quinazolinone 1b] was tested. Which IC50 did it give?
**A.** Its IC50 is 1.9 ± 0.2 µM.

**Q.** `Cn1c(CCC(=O)O)nc2cc(Cl)ccc2c1=O` [1e, Quinazolinone 1e] was tested. Which IC50 did it give?
**A.** Its IC50 is 1.9 ± 0.1 µM.

**Q.** With `Cn1c(CCC(=O)O)nc2cc([N+](=O)[O-])ccc2c1=O` [1f, Quinazolinone 1 f] as the molecule, how does the IC50 read?
**A.** The IC50 was 2.3 ± 0.2 µM.

**Q.** For `Cc1ccc2c(=O)n(C)c(CCC(=O)O)nc2c1` [1g, Quinazolinone 1 g], which IC50 is on record?
**A.** The IC50 was 2.1 ± 0.1 µM.

Target: T2, ubiquitin C-terminal pentapeptide RLRGG
Test: fluorescence polarization

**Q.** How did the Kd turn out when B1 was run?
**A.** The Kd was 680 nM.
